Experimental findings from ChEMBL document CHEMBL1909046, “DrugMatrix in vitro pharmacology data” are described below.

Data set [1] can be described thus: DRUGMATRIX: Interleukin IL-1 radioligand binding (ligand: [125I] interleukin 1beta). Format: cell membranes, Membrane. To be noted: nih3t3; Not Active = under 50% inhibition at 10 µM.
The target of data set [2] is T1, C-X-C chemokine receptor type 2 (Homo sapiens, UniProt P25025). Also: in other assays of this panel Not Active means under 50% inhibition at 10 µM.
T1 sequence (P25025 whole entry): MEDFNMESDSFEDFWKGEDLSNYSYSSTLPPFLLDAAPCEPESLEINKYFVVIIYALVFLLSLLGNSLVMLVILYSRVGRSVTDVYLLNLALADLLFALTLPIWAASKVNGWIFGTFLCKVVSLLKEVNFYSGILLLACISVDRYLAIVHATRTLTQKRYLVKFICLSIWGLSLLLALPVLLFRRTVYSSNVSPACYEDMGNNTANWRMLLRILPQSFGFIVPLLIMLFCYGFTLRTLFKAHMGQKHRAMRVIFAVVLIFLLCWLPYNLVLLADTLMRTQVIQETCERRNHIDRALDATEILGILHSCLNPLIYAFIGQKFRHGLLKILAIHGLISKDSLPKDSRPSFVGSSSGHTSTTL
In kind it is cell membranes, Membrane. The settings on record: cho-k1.

Data set [3] has as its target Melanocortin receptor 5 (Homo sapiens, UniProt P33032). In kind it is cell membranes, HEK293, Membrane. To be noted: hek293. Also: in other assays of this panel Not Active means under 50% inhibition at 10 µM.
For data set [4], the target named is T2, Nitric oxide synthase, inducible (Mus musculus, UniProt P29477).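 Also: inhibition of iNOS enzyme activity measured with L-arginine as substrate; in other assays of this panel Not Active means under 50% inhibition at 10 µM.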
T2 sequence (P29477 whole entry): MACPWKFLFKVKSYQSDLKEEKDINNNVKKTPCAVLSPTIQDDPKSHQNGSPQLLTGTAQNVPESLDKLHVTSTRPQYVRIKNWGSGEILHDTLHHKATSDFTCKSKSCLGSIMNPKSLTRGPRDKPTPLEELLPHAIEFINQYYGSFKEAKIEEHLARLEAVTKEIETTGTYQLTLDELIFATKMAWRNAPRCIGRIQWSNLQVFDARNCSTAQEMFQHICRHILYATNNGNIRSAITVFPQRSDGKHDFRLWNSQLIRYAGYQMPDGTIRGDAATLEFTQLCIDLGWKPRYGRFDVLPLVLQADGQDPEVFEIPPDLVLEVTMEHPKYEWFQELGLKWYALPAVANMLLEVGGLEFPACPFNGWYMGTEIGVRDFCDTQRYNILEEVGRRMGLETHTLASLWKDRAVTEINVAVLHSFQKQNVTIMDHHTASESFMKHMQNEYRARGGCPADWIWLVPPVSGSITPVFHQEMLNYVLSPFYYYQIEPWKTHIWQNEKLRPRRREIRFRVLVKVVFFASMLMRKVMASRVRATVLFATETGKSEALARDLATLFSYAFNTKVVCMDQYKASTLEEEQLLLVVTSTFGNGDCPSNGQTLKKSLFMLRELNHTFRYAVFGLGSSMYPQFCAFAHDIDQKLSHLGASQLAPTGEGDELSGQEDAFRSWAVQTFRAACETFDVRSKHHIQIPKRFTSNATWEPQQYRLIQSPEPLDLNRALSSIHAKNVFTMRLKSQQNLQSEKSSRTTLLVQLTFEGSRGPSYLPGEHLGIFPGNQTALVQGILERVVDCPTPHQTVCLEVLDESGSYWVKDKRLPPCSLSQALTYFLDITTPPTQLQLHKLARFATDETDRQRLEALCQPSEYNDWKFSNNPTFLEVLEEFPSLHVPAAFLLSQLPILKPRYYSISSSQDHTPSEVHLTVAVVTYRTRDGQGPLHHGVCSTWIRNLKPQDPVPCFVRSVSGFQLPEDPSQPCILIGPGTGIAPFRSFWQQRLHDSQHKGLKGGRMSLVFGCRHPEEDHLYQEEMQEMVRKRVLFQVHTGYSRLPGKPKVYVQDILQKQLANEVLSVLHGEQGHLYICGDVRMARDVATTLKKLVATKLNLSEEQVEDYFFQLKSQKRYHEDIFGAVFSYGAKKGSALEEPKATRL
The arrangement: species or system Escherichia coli.

Data set [5] can be described thus: DRUGMATRIX: Glutamate, NMDA, Agonism radioligand binding (ligand: [3H] CGP-39653). Format: cell membranes, Rattus norvegicus, Wistar, Cerebral cortex, Membrane. To be noted: Not Active = under 50% inhibition at 10 µM.
For data set [6], the target named is T3, Calcitonin receptor (Homo sapiens, UniProt P30988). Also: in other assays of this panel Not Active means under 50% inhibition at 10 µM.
T3 sequence (P30988 whole entry): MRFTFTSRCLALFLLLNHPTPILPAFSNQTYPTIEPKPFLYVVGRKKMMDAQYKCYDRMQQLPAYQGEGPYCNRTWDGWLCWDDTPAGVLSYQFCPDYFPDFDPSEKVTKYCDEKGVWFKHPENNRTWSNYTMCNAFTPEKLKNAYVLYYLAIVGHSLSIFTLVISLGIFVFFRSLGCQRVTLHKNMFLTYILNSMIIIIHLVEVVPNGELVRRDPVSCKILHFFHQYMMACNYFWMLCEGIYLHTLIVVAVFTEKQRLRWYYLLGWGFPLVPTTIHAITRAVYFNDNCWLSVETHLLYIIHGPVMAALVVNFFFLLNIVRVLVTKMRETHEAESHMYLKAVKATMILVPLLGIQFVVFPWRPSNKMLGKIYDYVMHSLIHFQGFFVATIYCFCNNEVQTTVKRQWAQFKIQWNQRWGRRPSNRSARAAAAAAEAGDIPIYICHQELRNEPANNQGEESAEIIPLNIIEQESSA
In kind it is cell membranes, Membrane. To be noted: t47d.

Data set [7] concerns the target C-C chemokine receptor type 2 (Homo sapiens, UniProt P41597). Format: cell membranes, Membrane. To be noted: cho-k1. Also: in other assays of this panel Not Active means under 50% inhibition at 10 µM.
Data set [8] has as its target Voltage-gated inwardly rectifying potassium channel KCNH2 (Homo sapiens, UniProt Q12809). The settings on record: hek293. Also: in other assays of this panel Not Active means under 50% inhibition at 10 µM.

Chain of Melanocortin receptor 5 (P33032 whole entry): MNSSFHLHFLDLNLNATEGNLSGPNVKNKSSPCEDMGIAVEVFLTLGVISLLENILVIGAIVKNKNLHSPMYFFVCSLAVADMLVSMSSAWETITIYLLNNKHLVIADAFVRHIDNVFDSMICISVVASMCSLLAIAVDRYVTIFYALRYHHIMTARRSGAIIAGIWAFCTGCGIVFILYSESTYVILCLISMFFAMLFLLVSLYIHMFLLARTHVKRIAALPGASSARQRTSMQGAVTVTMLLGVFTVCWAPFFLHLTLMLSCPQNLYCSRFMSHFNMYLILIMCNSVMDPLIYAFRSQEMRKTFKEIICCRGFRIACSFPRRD
Chain of Voltage-gated inwardly rectifying potassium channel KCNH2 (Q12809 whole entry): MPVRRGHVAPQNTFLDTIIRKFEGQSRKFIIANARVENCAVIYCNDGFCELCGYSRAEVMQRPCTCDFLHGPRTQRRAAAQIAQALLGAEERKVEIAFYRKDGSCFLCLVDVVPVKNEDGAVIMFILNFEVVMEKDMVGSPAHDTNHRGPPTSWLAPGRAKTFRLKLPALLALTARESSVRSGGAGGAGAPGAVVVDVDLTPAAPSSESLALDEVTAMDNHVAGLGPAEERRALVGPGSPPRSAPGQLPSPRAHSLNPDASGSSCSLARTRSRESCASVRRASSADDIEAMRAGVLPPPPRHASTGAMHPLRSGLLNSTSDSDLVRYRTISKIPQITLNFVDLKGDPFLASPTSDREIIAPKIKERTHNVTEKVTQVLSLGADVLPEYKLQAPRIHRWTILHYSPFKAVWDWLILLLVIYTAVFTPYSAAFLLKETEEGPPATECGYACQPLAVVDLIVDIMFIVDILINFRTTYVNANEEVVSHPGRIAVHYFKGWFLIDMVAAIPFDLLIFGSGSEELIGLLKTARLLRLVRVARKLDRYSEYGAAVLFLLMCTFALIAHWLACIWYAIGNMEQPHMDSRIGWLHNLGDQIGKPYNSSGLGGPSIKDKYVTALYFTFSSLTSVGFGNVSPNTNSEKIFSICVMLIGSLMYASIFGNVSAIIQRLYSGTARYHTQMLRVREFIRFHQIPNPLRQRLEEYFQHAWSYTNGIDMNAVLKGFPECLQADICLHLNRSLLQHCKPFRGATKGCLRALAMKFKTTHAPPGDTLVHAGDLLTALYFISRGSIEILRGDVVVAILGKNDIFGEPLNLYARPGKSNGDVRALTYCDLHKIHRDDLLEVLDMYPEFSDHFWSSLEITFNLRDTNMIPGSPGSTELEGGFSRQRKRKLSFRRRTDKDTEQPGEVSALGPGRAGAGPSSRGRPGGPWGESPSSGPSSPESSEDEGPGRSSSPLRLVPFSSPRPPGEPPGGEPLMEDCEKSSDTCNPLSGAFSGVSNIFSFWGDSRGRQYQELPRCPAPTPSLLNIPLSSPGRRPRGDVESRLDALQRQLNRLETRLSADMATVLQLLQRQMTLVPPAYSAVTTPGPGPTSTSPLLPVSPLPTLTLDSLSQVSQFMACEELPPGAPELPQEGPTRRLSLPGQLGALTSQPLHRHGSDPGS
Chain of C-C chemokine receptor type 2 (P41597 whole entry): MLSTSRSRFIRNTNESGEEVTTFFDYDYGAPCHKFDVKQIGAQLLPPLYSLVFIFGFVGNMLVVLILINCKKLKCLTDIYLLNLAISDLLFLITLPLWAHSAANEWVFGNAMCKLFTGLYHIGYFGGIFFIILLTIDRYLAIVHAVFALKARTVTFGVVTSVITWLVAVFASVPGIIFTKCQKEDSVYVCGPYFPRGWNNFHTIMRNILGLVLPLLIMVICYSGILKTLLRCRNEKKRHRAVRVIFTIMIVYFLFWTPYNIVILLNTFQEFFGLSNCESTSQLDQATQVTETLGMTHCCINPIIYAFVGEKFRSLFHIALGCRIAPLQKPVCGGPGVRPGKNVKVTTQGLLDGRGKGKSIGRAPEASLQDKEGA

Take `CC(C)(C)NC(=O)[C@H]1CC[C@H]2[C@@H]3CC[C@H]4NC(=O)C=C[C@]4(C)[C@H]3CC[C@]12C` [FINASTERIDE]: the IC50 result in data set [1], in data set [2], in data set [3], in data set [4], in data set [5] and in data set [6] was “Not Active” throughout. In addition, the IC50 entry in data set [7] and in data set [8] was “Not Active” in each case. In addition, the Ki entry in data set [1], in data set [5] and in data set [8] was “Not Active” in each case.

Regarding `CC(C)NNC(=O)c1ccncc1` [IPRONIAZID], the IC50 entry in data set [1], in data set [2], in data set [3], in data set [4], in data set [5] and in data set [6] was “Not Active” in each case. Further, the IC50 entry in data set [7] and in data set [8] was “Not Active” in each case. For the same molecule, the Ki entry in data set [1], in data set [5] and in data set [8] was “Not Active” in each case.

As to GRAMICIDIN, the IC50 (in general, the midpoint of a concentration-inhibition curve) in data set [1] is “Not Active”; in data set [2], “Not Active”; in data set [3] (read-out: IC50), 2.01 µM; in data set [4], “Not Active”; in data set [5], “Not Active”; in data set [6] it was “Not Active”. The IC50 result in data set [7] and in data set [8] was “Not Active” each time. Further, the Ki (usually a measure of affinity in units of concentration, obtained from inhibition or displacement) in data set [1] is “Not Active”; in data set [2], “Not Active”; in data set [3] (read-out: Ki) it was 1.89 µM; in data set [4], “Not Active”; in data set [5], “Not Active”; in data set [6], “Not Active”. Moreover, the Ki result in data set [7] and in data set [8] was “Not Active” in each case.

For the molecule `CC(=O)[C@@]1(O)CC[C@H]2[C@@H]3CCC4=CC(=O)CC[C@]4(C)[C@H]3CC[C@@]21C` [HYDROXYPROGESTERONE], the IC50 result in data set [1], in data set [2], in data set [3], in data set [4], in data set [5] and in data set [6] was “Not Active” in each case. The IC50 entry in data set [7] and in data set [8] was “Not Active” in each case. The Ki result in data set [1], in data set [5] and in data set [8] was “Not Active” in each case.

As for `O=C(N/N=C/c1ccc([N+](=O)[O-])o1)c1cc([N+](=O)[O-])cc([N+](=O)[O-])c1O` [NIFURSOL], the IC50 entry in data set [1], in data set [2], in data set [3], in data set [4], in data set [5] and in data set [6] was “Not Active” in each case. Besides, the IC50 result in data set [7] and in data set [8] was “Not Active” each time. Moreover, the Ki entry in data set [1], in data set [5] and in data set [8] was “Not Active” in each case.

With `CC(C)NCC(O)COc1cccc2[nH]ccc12` (configuration not stated) [PINDOLOL], the IC50 result in data set [1], in data set [2], in data set [3], in data set [4], in data set [5] and in data set [6] was “Not Active” throughout. In addition, the IC50 result in data set [7] and in data set [8] was “Not Active” throughout. The Ki result in data set [1], in data set [5] and in data set [8] was “Not Active” throughout.

For the molecule `Oc1cccc(O)c1O` [PYROGALLOL], the IC50 result in data set [1], in data set [2], in data set [3], in data set [4], in data set [5] and in data set [6] was “Not Active” throughout. In addition, the IC50 result in data set [7] and in data set [8] was “Not Active” each time. The Ki result in data set [1], in data set [5] and in data set [8] was “Not Active” in each case.

As to `NNc1nncc2ccccc12` [HYDRALAZINE], the IC50 result in data set [1], in data set [2], in data set [3], in data set [4], in data set [5] and in data set [6] was “Not Active” in each case. For the same molecule, the IC50 result in data set [7] and in data set [8] was “Not Active” throughout. Moreover, the Ki entry in data set [1], in data set [5] and in data set [8] was “Not Active” throughout.

For the molecule `C[C@]12C=CC(=O)C=C1CC[C@@H]1[C@@H]2[C@@H](O)C[C@@]2(C)[C@H]1CC[C@]2(O)C(=O)CO` [PREDNISOLONE], the IC50 result in data set [1], in data set [2], in data set [3], in data set [4], in data set [5] and in data set [6] was “Not Active” in each case. The IC50 result in data set [7] and in data set [8] was “Not Active” throughout. The Ki result in data set [1], in data set [5] and in data set [8] was “Not Active” in each case.

In the case of `O=C1O[C@H]([C@@H](O)CO)C(O)=C1O` [ASCORBIC ACID], the IC50 entry in data set [1], in data set [2], in data set [3], in data set [4], in data set [5] and in data set [6] was “Not Active” in each case. For the same molecule, the IC50 result in data set [7] and in data set [8] was “Not Active” in each case. The Ki entry in data set [1], in data set [5] and in data set [8] was “Not Active” throughout.

Regarding `C[n+]1ccccc1/C=N/O.[Cl-]` [PRALIDOXIME CHLORIDE], the IC50 entry in data set [1], in data set [2], in data set [3], in data set [4], in data set [5] and in data set [6] was “Not Active” in each case. In addition, the IC50 entry in data set [7] and in data set [8] was “Not Active” throughout. Further, the Ki result in data set [1], in data set [5] and in data set [8] was “Not Active” in each case.

Regarding `COc1ccc2c3c1O[C@H]1C[C@@H](O)C=C[C@@]31CCN(C)C2` [GALANTAMINE], the IC50 result in data set [1], in data set [2], in data set [3], in data set [4], in data set [5] and in data set [6] was “Not Active” in each case. Moreover, the IC50 entry in data set [7] and in data set [8] was “Not Active” in each case. In addition, the Ki result in data set [1], in data set [5] and in data set [8] was “Not Active” each time.
